The Ki is the equilibrium dissociation constant of an inhibitor or competing ligand from its target. Low values mean a stronger hold on the target, high ones a looser hold on the target.

The target in assay [1] is G protein-coupled receptor kinase 6 (Homo sapiens, UniProt P43250). As to the kind of experiment: Inhibition of GRK6 (unknown origin) after 90 to 120 mins by Kinase-Glo assay.
Assay [2] concerns the target T1, Protein-serine/threonine kinase (Sus scrofa) (UniProt F1RUX3).
T1 sequence (whole entry): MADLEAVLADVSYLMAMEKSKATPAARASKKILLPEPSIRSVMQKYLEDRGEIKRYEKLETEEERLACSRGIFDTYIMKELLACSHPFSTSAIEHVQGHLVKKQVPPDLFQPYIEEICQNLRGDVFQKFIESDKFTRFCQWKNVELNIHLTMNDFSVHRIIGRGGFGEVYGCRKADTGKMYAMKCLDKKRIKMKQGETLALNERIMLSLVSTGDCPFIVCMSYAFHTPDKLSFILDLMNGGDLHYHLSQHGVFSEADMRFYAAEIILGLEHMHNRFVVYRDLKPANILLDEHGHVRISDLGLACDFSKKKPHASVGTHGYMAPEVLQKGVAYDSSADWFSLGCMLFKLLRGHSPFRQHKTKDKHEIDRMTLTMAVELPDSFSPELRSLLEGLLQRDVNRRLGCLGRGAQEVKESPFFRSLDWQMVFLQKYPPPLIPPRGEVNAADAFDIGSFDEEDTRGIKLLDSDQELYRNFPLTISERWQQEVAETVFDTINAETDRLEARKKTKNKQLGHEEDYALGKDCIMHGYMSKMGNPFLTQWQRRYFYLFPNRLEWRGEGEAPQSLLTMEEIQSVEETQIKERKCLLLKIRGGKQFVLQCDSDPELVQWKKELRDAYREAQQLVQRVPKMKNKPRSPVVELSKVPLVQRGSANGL
Description: Inhibition of GRK2 in porcine trabecular meshwork cells assessed as F-actin depolymerization at 50 uM after 20 mins by Alexa-fluor 488-labelled phalloidin/DAPI staining assay relative to control.

For assay [3], the system named is Felis catus. As to the kind of experiment: Antiglaucoma activity in cat assessed as decrease in intraocular pressure administered topically twice per day on eye measured after 1 to 23 hrs by pneumatonometer. In kind it is functional, organism-based.
Assay [4] deals with Felis catus. Description: Antiglaucoma activity in cat assessed as decrease in intraocular pressure administered topically 4 times per day on eye measured after 1 to 23 hrs by pneumatonometer. The format is functional, organism-based.
Assay [5] concerns Felis catus. As to the kind of experiment: Antiglaucoma activity in cat assessed as decrease of redness administered topically. The format is functional, organism-based.
Assay [6] deals with Felis catus. Description: Antiglaucoma activity in cat assessed as decrease of hyperemia administered topically. The format is functional, organism-based.
In assay [7] the target is T2, Beta-adrenergic receptor kinase 1 (Homo sapiens) (UniProt P25098).
T2 sequence (whole entry): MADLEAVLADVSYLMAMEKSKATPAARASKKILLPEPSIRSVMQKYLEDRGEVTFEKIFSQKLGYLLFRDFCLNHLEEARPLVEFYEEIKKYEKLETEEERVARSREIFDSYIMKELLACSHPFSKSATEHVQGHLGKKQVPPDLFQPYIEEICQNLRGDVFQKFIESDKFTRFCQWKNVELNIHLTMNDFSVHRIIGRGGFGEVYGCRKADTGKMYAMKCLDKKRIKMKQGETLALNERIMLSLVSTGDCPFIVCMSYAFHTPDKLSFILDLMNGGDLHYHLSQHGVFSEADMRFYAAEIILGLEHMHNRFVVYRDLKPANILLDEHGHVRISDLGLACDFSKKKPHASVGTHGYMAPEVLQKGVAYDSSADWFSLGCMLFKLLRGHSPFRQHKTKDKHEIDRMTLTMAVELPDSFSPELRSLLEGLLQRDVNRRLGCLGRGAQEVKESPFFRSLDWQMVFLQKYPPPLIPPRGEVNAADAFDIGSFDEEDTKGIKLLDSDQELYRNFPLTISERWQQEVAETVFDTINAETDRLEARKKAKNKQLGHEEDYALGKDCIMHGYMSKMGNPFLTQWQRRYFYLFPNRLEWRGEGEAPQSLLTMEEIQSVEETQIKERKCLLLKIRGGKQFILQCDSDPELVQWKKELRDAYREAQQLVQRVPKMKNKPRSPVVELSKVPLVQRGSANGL
As to the kind of experiment: Inhibition of GRK2 in HEK293 cells overexpressing beta 2 adrenergic receptor assessed as increase in c-AMP accumulation in presence of isoproterenol. The format is cell-based.

Assay [8] deals with Felis catus. Description: Antiglaucoma activity in cat assessed as decrease of ocular irritation administered topically. In kind it is functional, organism-based. Particulars: Eye.
Assay [9] concerns Felis catus. As to the kind of experiment: Antiglaucoma activity in cat assessed as decrease of dry eye syndrome administered topically twice per day on eye. In kind it is functional, organism-based.
For assay [10], the system named is Felis catus. Description: Antiglaucoma activity in cat assessed as decrease of allergic symptoms administered topically twice per day on eye. The format is functional, organism-based.
In assay [11] the target is T3, Beta-adrenergic receptor kinase 1 (Homo sapiens, UniProt P25098).
T3 sequence (P25098 whole entry): T2 sequence (whole entry)
Description: Inhibition of human GRK2 after 90 to 120 mins by Kinase-Glo assay. On the technique in general: In Kinase-Glo more light means more ATP remaining.

Assay [12] has as its target G protein-coupled receptor kinase 5 (Homo sapiens, UniProt P34947). As to the kind of experiment: Inhibition of GRK5 (unknown origin) after 90 to 120 mins by Kinase-Glo assay.

Active and inactive are the calls of the source. No cut-off for these calls is given here.

Chain of G protein-coupled receptor kinase 6 (P43250 whole entry): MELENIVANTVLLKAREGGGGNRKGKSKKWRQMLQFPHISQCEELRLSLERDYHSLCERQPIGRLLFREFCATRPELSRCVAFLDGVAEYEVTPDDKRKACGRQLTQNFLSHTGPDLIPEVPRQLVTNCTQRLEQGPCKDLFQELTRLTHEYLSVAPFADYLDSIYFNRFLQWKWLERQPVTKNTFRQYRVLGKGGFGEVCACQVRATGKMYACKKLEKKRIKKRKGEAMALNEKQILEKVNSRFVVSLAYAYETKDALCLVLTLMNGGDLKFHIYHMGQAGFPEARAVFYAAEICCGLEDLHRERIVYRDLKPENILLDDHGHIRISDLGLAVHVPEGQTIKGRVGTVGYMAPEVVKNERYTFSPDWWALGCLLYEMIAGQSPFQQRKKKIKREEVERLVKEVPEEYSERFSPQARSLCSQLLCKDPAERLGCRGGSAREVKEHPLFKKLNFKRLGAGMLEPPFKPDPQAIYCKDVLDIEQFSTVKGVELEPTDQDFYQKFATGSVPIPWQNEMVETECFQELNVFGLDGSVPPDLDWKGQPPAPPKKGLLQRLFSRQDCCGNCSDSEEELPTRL
Chain of G protein-coupled receptor kinase 5 (P34947 whole entry): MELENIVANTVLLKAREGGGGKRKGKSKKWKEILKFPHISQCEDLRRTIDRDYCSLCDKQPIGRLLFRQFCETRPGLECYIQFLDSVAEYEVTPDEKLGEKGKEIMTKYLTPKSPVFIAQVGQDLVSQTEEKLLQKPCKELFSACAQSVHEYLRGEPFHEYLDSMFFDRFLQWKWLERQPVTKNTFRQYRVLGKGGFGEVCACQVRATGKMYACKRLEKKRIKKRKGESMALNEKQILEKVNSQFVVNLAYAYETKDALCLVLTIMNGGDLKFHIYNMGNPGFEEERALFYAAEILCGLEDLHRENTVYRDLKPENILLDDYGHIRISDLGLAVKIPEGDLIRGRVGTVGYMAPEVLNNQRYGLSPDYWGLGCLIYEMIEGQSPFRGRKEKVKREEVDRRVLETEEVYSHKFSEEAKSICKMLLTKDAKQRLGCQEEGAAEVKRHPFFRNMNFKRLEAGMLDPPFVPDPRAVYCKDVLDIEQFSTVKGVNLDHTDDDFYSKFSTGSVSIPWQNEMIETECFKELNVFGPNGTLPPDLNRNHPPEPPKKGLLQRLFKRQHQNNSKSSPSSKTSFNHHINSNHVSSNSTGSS

`O=C(CNc1cccc(C(=O)Nc2ccccc2)c1)N/N=C/c1c(Cl)cncc1Cl` registered a Ki in [1] above 10 µM. Moreover, the “GRK2 inhibition activity call (active/not active)” value in assay [2] is “Active”.

`CNC(=O)c1cccc(NCC(=O)N/N=C/c2c(Cl)cncc2Cl)c1`: the “GRK2 inhibition activity call (active/not active)” value in assay [2] is “inactive”.

Consider `COc1cc(/C=N/NC(=O)CNc2cccc(Cl)c2)nc(OC)n1`, for which the “GRK2 inhibition activity call (active/not active)” value in assay [2] is “inactive”.

For the compound `COc1ccc(Oc2cccc(NCC(=O)NN=Cc3ccncc3)c2)cc1` (mixture of isomers), the “GRK2 inhibition activity call (active/not active)” value in assay [2] is “inactive”.

As for `NC(=O)c1ccc(NCC(=O)N/N=C/c2c(Cl)cncc2Cl)cc1`, the outcome in the assay on Felis catus [3] was Active.

Regarding `O=C(CNc1cccc(C(=O)NCCN2CCOCC2)c1)N/N=C/c1ccncc1`, in the assay with Felis catus [4], the result was Active.

As to `O=C(CNc1cccc(C(=O)Nc2cccnc2)c1)N/N=C/c1ccncc1`, the “GRK2 inhibition activity call (active/not active)” value in assay [2] is “Active”.

For the compound `O=C(CNc1ccc(Oc2ccccc2)cc1)N/N=C/c1c(Cl)cncc1Cl`, the “GRK2 inhibition activity call (active/not active)” value in assay [2] was “inactive”.

With `NC(=O)c1cccc(NCC(=O)N/N=C/c2ccncc2)c1`, the outcome with Felis catus [5], in the assay on Felis catus [6] and in the assay on Felis catus [8] was Active. The inhibition entry in [7] was “Active”.

For `Cc1ccc(Oc2cccc(NCC(=O)N/N=C/c3ccncc3)c2)cc1`, the result with Felis catus [9] and in the assay with Felis catus [10] was Active.

Take `CCc1cccc(NCC(=O)N/N=C/c2c(Cl)cncc2Cl)c1`: the inhibition constant Ki in assay [11] is above 10 µM.

As for `O=C(CNc1cccc(C(=O)NCCN2CCOCC2)c1)N/N=C/c1c(Cl)cncc1Cl`, in [2], the “GRK2 inhibition activity call (active/not active)” value is “inactive”.

The compound `O=C(CNc1cccc(C(=O)Nc2ccccc2)c1)N/N=C/c1ccncc1` showed a Ki in assay [12] above 10 µM. Also, in [2], the “GRK2 inhibition activity call (active/not active)” value is “Active”.

Consider `C/C(=N\NC(=O)CNc1cccc(C(=O)Nc2ccccc2)c1)c1ccncc1`, for which, in [2], the “GRK2 inhibition activity call (active/not active)” value was “inactive”.

Compound `O=C(CNc1cccc(OCc2ccccc2)c1)N/N=C/c1ccncc1` returned a Ki in assay [1] above 10 µM.

These data come from ChEMBL document CHEMBL3727367, “Hydrazide compounds” (2007).
